In patent US8367830B2, “Methods for the identification of phosphatidylinositol kinase interacting molecules and for the purification of phosphatidylinositol kinase proteins” (Cellzome AG, priority 2009, dated 2013):

Experiments:
PIK3C3 = target: T1, PIK3C3 (Homo sapiens, UniProt Q8NEB9); test: Kinobeads competition binding, immobilized CZC31207, Jurkat/Ramos lysate mix; settings: 10 μM free compound; mix of Jurkat and Ramos cell lysates
T1 construct: endogenous in cells; host or cells: mixed lysate of Jurkat and Ramos cells
T1 sequence (Q8NEB9 whole entry): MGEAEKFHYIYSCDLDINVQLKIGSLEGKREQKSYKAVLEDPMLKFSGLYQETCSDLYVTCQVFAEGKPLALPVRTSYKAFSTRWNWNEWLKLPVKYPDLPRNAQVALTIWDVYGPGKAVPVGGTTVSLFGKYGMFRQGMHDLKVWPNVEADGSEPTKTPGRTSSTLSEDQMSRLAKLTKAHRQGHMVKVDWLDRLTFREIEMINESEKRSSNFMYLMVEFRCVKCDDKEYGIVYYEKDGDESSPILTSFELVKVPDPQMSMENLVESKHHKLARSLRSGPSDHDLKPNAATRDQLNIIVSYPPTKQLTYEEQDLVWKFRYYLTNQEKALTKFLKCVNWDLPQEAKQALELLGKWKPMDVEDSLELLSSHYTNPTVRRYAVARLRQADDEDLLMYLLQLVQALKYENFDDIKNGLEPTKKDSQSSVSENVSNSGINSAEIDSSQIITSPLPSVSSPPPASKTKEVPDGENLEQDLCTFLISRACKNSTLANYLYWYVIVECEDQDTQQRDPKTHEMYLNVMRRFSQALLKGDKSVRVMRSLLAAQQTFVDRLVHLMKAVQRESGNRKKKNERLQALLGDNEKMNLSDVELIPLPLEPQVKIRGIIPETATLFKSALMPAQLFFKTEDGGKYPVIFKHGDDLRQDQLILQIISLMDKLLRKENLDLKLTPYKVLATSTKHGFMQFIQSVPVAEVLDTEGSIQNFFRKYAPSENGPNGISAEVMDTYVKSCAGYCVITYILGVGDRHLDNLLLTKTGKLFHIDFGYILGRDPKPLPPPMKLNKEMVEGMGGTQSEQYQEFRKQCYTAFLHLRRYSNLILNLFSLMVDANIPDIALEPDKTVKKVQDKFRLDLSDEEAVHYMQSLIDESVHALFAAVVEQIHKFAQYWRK
Procedure: (§1) To the first aliquot of cell lysate 10 μM of the free compound CZC31207 was added and allowed to bind to proteins in the lysate. Then the affinity matrix with the immobilized compound was added to capture proteins that were not interacting with the previously added free compound. Beads were separated from the lysate and bead bound proteins were eluted in SDS sample buffer and subsequently separated by SDS-Polyacrylamide gel electrophoresis (FIG. 5). Suitable gel bands were cut out and subjected to in-gel proteolytic digestion with trypsin. The second lysate aliquot was processed identically, however no free compound was added (DMSO solvent control). Peptides originating from samples 1 and 2 were labeled with iTRAQ reagents (iTRAQ 114 and iTRAQ 116) and the combined samples were analyzed with a nano-flow liquid chromatography system coupled online to a tandem mass spectrometer (LC-MS/MS) experiment followed by iTRAQ reporter ion quantification in the MS/MS spectra as described in Example 2.
Jurkat cells (ATCC number T1B-152) and Ramos cells (ATCC number CRL-1596) were either obtained from an external supplier (CIL SA, Mons, Belgium) or grown in one litre Spinner flasks (Integra Biosciences, #182101) in suspension in RPMI 1640 medium (Invitrogen, #21875-034) supplemented with 10% Fetal Bovine Serum (Invitrogen, #10270-106) at a density between 0.2×10^6 and 1.0×10^6 cells/ml. Cells were harvested by centrifugation, washed once with 1×PBS buffer (Invitrogen, #14190-094) and cell pellets were frozen in liquid nitrogen and subsequently stored at −80° C.
The identified kinases are shown in Table 5 including the percent competition values for the sample to which 10 μM free compound had been added. In total of 20 different kinases were identified and competed by different degrees.

BCKDK [1] = target: T2, BCKDK (Homo sapiens, UniProt O14874); test: Kinobeads competition binding, immobilized CZC31207, HeLa/placenta lysate mix; design: endogenous in cells; settings: 10 μM free compound; mixed HeLa and placenta cell lysates
Procedure: (§2) To the first aliquot of cell lysate 10 μM of the free compound (CZC31207) was added and allowed to bind to proteins in the lysate. Then the affinity matrix with the immobilized compound (Example 1) was added to capture proteins that were not interacting with the previously added free compound. Beads were separated from the lysate and bead bound proteins were eluted in SDS sample buffer and subsequently separated by SDS-Polyacrylamide gel electrophoresis (FIG. 4). Suitable gel bands were cut out and subjected to in-gel proteolytic digestion with trypsin. The second lysate aliquot was processed identically, however no free compound was added (DMSO solvent control). Peptides originating from samples 1 and 2 were labeled with iTRAQ reagents (iTRAQ 115 and iTRAQ 117) and the combined samples were analyzed with a nano-flow liquid chromatography system coupled online to a tandem mass spectrometer (LC-MS/MS) experiment followed by iTRAQ reporter ion quantification in the MS/MS spectra (Ross et al., 2004. Mol. Cell. Proteomics 3(12):1154-1169). Further experimental protocols can be found in WO2006/134056 and a previous publication (Bantscheff et al., 2007. Nature Biotechnology 25, 1035-1044).
(§3) Cells were homogenized in a Potter S homogenizer in lysis buffer: 50 mM Tris-HCl, 0.8% NP40, 5% glycerol, 150 mM NaCl, 1.5 mM MgCl2, 25 mM NaF, 1 mM sodium vanadate, 1 mM DTT, pH 7.5. One complete EDTA-free tablet (protease inhibitor cocktail, Roche Diagnostics, 1 873 580) per 25 ml buffer was added. The material was dounced 20 times using a mechanized POTTER S, transferred to 50 ml falcon tubes, incubated for 30 minutes rotating at 4° C. and spun down for 10 minutes at 20,000×g at 4° C. (10,000 rpm in Sorvall SLA600, precooled). The supernatant was transferred to an ultracentrifuge (UZ)-polycarbonate tube (Beckmann, 355654) and spun for 1 hour at 145.000×g at 4° C. (40.000 rpm in Ti50.2, precooled). The supernatant was transferred again to a fresh 50 ml falcon tube, the protein concentration was determined by a Bradford assay (BioRad) and samples containing 50 mg of protein per aliquot were prepared. The samples were immediately used for experiments or frozen in liquid nitrogen and stored frozen at −80° C.
(§4) Sepharose-beads with the immobilized compound (100 μl beads per pull-down experiment) were equilibrated in lysis buffer and incubated with a cell lysate sample containing 50 mg of protein on an end-over-end shaker (Roto Shake Genie, Scientific Industries Inc.) for 2 hours at 4° C. Beads were collected, transferred to Mobicol-columns (MoBiTech 10055) and washed with 10 ml lysis buffer containing 0.4% NP40 detergent, followed by 5 ml lysis buffer containing 0.2% detergent. To elute bound proteins, 60 μl 2×SDS sample buffer was added to the column. […]

CaMK2g = CaMK2g (Homo sapiens, UniProt Q13555); test: as above; design: endogenous in cells; settings: 10 μM free compound; mixed HeLa and placenta cell lysates
Chain of CaMK2g (Q13555 whole entry): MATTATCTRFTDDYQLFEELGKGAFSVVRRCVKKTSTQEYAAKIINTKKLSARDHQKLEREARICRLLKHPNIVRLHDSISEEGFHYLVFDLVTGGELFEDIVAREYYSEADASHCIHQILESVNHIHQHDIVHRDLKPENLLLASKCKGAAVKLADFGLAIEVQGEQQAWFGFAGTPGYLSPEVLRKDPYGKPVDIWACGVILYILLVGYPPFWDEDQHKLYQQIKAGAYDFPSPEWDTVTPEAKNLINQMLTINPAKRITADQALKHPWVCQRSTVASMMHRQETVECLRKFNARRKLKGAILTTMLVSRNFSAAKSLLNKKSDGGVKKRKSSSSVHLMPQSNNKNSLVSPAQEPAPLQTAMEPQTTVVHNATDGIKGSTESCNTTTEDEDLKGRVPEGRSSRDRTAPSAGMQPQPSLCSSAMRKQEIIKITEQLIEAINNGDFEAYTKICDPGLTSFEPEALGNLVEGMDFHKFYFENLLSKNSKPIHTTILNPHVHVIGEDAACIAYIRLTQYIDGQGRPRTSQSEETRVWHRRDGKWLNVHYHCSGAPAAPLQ
Procedure: as §2, §3, §4

MAP3K1 [2] = target: T3, MAP3K1 (Homo sapiens, UniProt Q13233); test: as above; design: endogenous in cells; settings: 10 μM free compound; mixed HeLa and placenta cell lysates
T3 sequence (Q13233 whole entry): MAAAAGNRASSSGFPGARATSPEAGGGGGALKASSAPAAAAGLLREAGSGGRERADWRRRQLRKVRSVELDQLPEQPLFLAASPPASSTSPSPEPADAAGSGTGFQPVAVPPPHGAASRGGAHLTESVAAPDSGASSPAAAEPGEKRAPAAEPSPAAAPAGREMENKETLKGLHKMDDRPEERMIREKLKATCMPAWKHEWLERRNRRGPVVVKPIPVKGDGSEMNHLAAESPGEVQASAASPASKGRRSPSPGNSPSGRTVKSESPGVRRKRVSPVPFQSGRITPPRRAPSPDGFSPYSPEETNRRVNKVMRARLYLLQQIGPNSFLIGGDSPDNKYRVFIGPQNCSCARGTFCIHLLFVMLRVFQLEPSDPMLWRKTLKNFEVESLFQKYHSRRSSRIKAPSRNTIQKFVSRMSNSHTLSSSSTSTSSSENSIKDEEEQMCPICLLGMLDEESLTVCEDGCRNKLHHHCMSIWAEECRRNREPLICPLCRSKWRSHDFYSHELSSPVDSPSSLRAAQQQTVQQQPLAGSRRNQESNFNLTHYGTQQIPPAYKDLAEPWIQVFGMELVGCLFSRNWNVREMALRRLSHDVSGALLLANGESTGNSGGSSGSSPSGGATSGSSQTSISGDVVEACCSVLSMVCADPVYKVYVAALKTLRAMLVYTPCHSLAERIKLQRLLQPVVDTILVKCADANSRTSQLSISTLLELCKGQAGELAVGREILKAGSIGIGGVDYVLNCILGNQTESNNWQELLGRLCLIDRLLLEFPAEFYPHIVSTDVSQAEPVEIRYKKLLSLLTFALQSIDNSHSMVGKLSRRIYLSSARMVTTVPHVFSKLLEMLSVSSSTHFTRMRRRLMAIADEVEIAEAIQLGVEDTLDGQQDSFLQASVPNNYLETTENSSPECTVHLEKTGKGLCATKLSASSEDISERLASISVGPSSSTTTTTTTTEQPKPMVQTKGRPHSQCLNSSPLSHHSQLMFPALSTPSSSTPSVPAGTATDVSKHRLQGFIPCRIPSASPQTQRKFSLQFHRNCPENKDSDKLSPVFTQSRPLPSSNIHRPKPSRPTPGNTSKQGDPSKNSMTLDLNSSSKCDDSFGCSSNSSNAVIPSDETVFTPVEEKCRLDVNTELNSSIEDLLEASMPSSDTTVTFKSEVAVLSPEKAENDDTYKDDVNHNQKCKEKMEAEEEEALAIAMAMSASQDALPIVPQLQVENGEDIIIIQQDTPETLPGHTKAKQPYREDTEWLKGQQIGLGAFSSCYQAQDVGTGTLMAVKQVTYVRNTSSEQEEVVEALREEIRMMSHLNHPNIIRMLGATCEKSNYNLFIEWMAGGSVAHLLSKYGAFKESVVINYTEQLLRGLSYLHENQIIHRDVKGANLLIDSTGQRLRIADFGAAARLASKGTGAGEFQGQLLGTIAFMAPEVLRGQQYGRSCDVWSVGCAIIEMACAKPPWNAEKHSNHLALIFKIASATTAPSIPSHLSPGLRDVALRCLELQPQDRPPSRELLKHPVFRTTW
Procedure: as §2, §3, §4

PIK4Ca = PIK4Ca (Homo sapiens, UniProt P42356); test: as above; design: endogenous in cells; settings: 10 μM free compound; mixed HeLa and placenta cell lysates
Procedure: as §2, §3, §4

BCKDK [3] = target: T2, BCKDK; test: Kinobeads competition binding, immobilized CZC31207, Jurkat/Ramos lysate mix; design: endogenous in cells; host or cells: mixed lysate of Jurkat and Ramos cells; settings: 10 μM free compound; mix of Jurkat and Ramos cell lysates
Procedure: as §1
(§5) Jurkat cells (ATCC number T1B-152) and Ramos cells (ATCC number CRL-1596) were either obtained from an external supplier (CIL SA, Mons, Belgium) or grown in one litre Spinner flasks (Integra Biosciences, #182101) in suspension in RPMI 1640 medium (Invitrogen, #21875-034) supplemented with 10% Fetal Bovine Serum (Invitrogen, #10270-106) at a density between 0.2×10^6 and 1.0×10^6 cells/ml. […]

MAP3K1 [4] = target: T3, MAP3K1; test: as above; design: endogenous in cells; host or cells: mixed lysate of Jurkat and Ramos cells; settings: 10 μM free compound; mix of Jurkat and Ramos cell lysates
Procedure: as §1, §5

PIK3Cg = PIK3Cg (Homo sapiens, UniProt P48736); test: Kinobeads competition binding, immobilized CZC31207, HeLa/placenta lysate mix; design: endogenous in cells; host or cells: mix of HeLa cell lysate and placenta lysate; settings: 10 μM free compound; mixed HeLa and placenta cell lysates
Chain of PIK3Cg (P48736 whole entry): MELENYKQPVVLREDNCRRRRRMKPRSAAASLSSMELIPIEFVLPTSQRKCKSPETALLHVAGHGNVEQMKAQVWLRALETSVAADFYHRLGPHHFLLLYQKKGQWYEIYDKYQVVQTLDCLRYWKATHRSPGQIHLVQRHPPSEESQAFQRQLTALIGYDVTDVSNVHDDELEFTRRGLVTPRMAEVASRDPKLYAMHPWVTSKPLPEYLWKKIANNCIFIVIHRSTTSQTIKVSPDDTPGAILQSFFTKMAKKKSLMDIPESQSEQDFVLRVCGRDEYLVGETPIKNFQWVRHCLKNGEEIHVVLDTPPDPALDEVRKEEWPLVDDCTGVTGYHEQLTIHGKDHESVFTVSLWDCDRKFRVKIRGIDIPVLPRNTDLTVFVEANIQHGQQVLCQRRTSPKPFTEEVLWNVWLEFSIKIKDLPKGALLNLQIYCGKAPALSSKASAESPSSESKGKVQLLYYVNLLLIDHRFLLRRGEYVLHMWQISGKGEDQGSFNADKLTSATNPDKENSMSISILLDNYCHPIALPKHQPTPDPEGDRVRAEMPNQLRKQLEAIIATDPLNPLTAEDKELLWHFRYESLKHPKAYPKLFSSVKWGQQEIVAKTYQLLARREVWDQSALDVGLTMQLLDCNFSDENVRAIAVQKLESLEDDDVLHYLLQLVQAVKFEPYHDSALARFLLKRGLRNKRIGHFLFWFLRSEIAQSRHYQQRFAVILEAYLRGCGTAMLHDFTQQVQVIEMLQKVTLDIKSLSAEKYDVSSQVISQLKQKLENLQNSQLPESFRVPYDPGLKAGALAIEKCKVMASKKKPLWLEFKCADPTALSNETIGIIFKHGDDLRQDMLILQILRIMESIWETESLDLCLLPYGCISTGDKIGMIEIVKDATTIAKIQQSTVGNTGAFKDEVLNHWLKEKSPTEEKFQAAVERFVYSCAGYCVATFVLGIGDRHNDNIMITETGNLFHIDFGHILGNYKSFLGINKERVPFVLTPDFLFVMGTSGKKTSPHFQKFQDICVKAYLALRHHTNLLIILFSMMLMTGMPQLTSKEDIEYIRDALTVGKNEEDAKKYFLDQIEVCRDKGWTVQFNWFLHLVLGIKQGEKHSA
Procedure: as §2, §3, §4

CC(C)NS(=O)(=O)c1cncc(-c2ccc3nc(NC(=O)NCCN)nn3c2)c1 [CZC31207, 5-(2-(3-(2-aminoethyl)ureido)-[1,2,4]triazolo[1,5-a]pyridin-6-yl)-N-isopropylpyridine-3-sulfonamide]
Competition % PIK3C3 (PIK3C3): 52.4%
Competition % BCKDK (BCKDK [1]): 8%
Competition % CaMK2g (CaMK2g): 15.2%
Competition % MAP3K1 (MAP3K1 [2]): 13.3%
Competition % PIK4Ca (PIK4Ca): 39.9%
Competition % BCKDK (BCKDK [3]): −0.1%
Competition % MAP3K1 (MAP3K1 [4]): 14.1%
Competition % PIK3Cg (PIK3Cg): 80%
